Bounds are passed on as bounds.

The target in the assay is T1, menin/MLL binding (biotinylated wild-type or mutated menin and MLL-AF9 fusion protein) (Homo sapiens, UniProt O00255).
T1 construct: biotinylated (1) wild-type menin or (2) mutated menin (described in Nature (2012) Vol. 482, pp. 542-548); fused on or other part: Biotin attached chemically (Sulfo-NHS-Biotin); no fused second protein is printed for menin
T1 sequence (O00255 1-459 limits assumed): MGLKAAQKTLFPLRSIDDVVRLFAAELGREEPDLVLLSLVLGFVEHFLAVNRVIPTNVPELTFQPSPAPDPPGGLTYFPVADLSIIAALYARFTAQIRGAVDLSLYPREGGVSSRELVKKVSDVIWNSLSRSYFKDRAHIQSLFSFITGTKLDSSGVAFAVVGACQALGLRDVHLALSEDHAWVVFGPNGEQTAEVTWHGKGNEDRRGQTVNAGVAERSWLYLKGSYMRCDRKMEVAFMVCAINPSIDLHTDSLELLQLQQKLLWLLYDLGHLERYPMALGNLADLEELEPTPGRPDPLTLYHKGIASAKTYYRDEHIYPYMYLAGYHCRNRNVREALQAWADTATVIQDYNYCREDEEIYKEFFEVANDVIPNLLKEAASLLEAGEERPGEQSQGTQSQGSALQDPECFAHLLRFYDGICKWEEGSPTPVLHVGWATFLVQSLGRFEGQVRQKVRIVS
As to the kind of experiment: Assay 1 (Binding Assay): AlphaLISA menin/MLL binding. The conditions noted are these: 5 nM biotinylated menin, MLL-AF9-FLAG lysate. Here is the method:
Potencies of inhibitor compounds against menin/MLL binding were assessed by AlphaLISA assay using biotinylated (1) wild-type menin or (2) mutated menin (described in Nature (2012) Vol. 482, pp. 542-548) and MLL-AF9 fusion protein bearing a FLAG epitope at its C-terminus. Menin proteins were expressed in E. coli and covalently modified with biotin using EZ-Link™ Sulfo-NHS-Biotin (ThermoFisher Cat. No. 21217) according to manufacturer's protocol. MLL1-1,396 fused to AF91-92 and the C-terminal FLAG peptide was expressed in HEK293 cells and used as a lysate cleared at 21,000×g for 10 min.
Compounds (2 μL of solutions in DMSO) were dispensed in white 96-well half-area plates (Corning Cat. No. 3693) and incubated for 30 min at RT with 5 nM biotinylated menin and appropriate amount of MLL-AF9-FLAG lysate in 40 μL of 50 mM Tris-HCl buffer pH 7.4 containing 5% (v/v) DMSO, 50 mM NaCl, 0.01% (w/v) bovine serum albumin (BSA) and 1 mM DTT. To this incubation mixture, 40 μl of AlphaLISA anti-FLAG acceptor (PerkinElmer Cat. No. AL112C) and streptavidin donor (PerkinElmer Cat. No. 6760002) beads (10 μg/mL each) was added and incubation continued at RT for 60 min. Alpha (amplified luminescent proximity homogeneous assay) signal was measured on an Envision multi-label plate reader at the end of the incubation. All steps were conducted under dim fluorescent light.
These percent inhibition values were regressed against compound concentrations in the assay using four parameter logit non-linear curve fitting (XLFit, IDBS). The IC50 values were derived from the curve fitting as inflection points on the dose-response curves and are set out in Table 14 below.
A general note: In Alpha technology, singlet oxygen from a donor bead excites a nearby acceptor bead.
With `CC(=O)Nc1ccc(CN2CCC(c3cn(-c4ccc(F)cc4C(=O)N(C)C(C)C)c4cnccc34)CC2)cc1` [Example 22, 2-(3-(1-(4-acetamidobenzyl)piperidin-4-yl)-1H-pyrrolo[2,3-c]pyridin-1-yl)-5-fluoro-N-isopropyl-N-methylbenzamide], the IC50 – broadly, the concentration needed to halve the response being measured – is under 100 nM.
Regarding `Cc1c(CN2CCC(c3cn(-c4ccc(Cl)cc4)c4cnccc34)CC2)ccc2[nH]c(C#N)cc12` [Example 38, 5-((4-(1-(4-chlorophenyl)-1H-pyrrolo[2,3-c]pyridin-3-yl)piperidin-1-yl)methyl)-4-methyl-1H-indole-2-carbonitrile], the half-maximal inhibitory concentration (IC50) was in the range of 100 to 1000 nM.
With `CC(C)N(C)C(=O)c1cc(F)ccc1-n1cc([C@H]2CC[C@H](N3CC[C@@H](CO)C3)CC2)c2ccncc21` [Example 102, 5-fluoro-2-(3-(trans-4-((R)-3-(hydroxymethyl)pyrrolidin-1-yl)cyclohexyl)-1H-pyrrolo [2,3-c]pyridin-1-yl)-N-isopropyl-N-methylbenzamide] the figure was under 100 nM.
In the case of `CC(C)N(C)C(=O)c1cc(F)ccc1-n1cc(C2CCC3(CC2)CN(C)C3)c2ccncc21` [Example 51A, 5-fluoro-N-isopropyl-N-methyl-2-(3-(2-methyl-2-azaspiro[3.5]nonan-7-yl)-1H-pyrrolo[2,3-c]pyridin-1-yl)benzamide], the IC50 is 100 to 1000 nM.
`CC(C)N(C)C(=O)c1cc(F)ccc1-n1cc(C2CCN(Cc3ccc(S(C)(=O)=O)cc3)CC2)c2ccncc21` [Example 13, 5-fluoro-N-isopropyl-N-methyl-2-(3-(1-(4-(methylsulfonyl)benzyl)piperidin-4-yl)-1H-pyrrolo[2,3-c]pyridin-1-yl)benzamide]: the IC50 fell in the range of 100 to 1000 nM.
With “5-fluoro-N-isopropyl-N- methyl-2-(3-(2-((1- (methylsulfonyl) piperidin-4-yl)methyl) octahydrocyclopenta [c]pyrrol-5-yl)- 1H-pyrrolo[2,3-c] pyridin-1-yl) benzamide [Example 91]” the figure was under 100 nM; with `Cc1c(CN2CCC(c3cn(-c4ccccc4)c4cncnc34)CC2)ccc2[nH]c(C#N)cc12` [Example 72, 4-methyl-5-((4-(5-phenyl-5H-pyrrolo[3,2-d]pyrimidin-7-yl)piperidin-1-yl)methyl)-1H-indole-2-carbonitrile], at least 1000 nM.
With `CC(C)N(C)C(=O)c1cc(F)ccc1-n1cc([C@H]2CC[C@@H](N3CCC(F)(F)CC3)CC2)c2ccncc21` [Example 111, 2-(3-(cis-4-(4,4-difluoropiperidin-1-yl)cyclohexyl)-1H-pyrrolo[2,3-c]pyridin-1-yl)-5-fluoro-N-isopropyl-N-methylbenzamide] the figure was 100 to 1000 nM.
Compound `Fc1ccc(-n2cc(C3CCN(CCc4ccccc4)CC3)c3ccncc32)cc1` [Example 40, 1-(4-fluorophenyl)-3-(1-phenethylpiperidin-4-yl)-1H-pyrrolo[2,3-c]pyridine] registered a concentration for half-maximal inhibition (IC50) of 100 to 1000 nM.
With `CC(C)N(C)C(=O)c1cc(F)ccc1-n1cc([C@H]2CC[C@@H](N3CC[C@H](CO)C3)CC2)c2ccncc21` [Example 105, 5-fluoro-2-(3-(cis-4-((S)-3-(hydroxymethyl)pyrrolidin-1-yl)cyclohexyl)-1H-pyrrolo[2,3-c]pyridin-1-yl)-N-isopropyl-N-methylbenzamide] the figure was 100 to 1000 nM.
Compound `CC(C)N(C)C(=O)c1cc(F)ccc1-n1cc([C@H]2CC[C@H](N3CC(CO)C3)CC2)c2ccncc21` [Example 98, 5-fluoro-2-(3-(trans-4-(3-(hydroxymethyl)azetidin-1-yl)cyclohexyl)-1H-pyrrolo[2,3-c]pyridin-1-yl)-N-isopropyl-N-methylbenzamide] returned a half-maximal inhibitory concentration (IC50) of under 100 nM.
`CC(C)N(C)C(=O)c1cc(F)ccc1-n1cc(-c2ccc3c(c2)CCN(C)C3)c2ccncc21` [Example 52, 5-fluoro-N-isopropyl-N-methyl-2-(3-(2-methyl-1,2,3,4-tetrahydroisoquinolin-6-yl)-1H-pyrrolo[2,3-c]pyridin-1-yl)benzamide] had a half-maximal inhibitory concentration (IC50) of 100 to 1000 nM.
`CC(C)N(C)C(=O)c1cc(F)ccc1-n1cc([C@H]2CC[C@H](NC(=O)c3ccccc3)CC2)c2ccncc21` [Example 129, 2-(3-(trans-4-benzamidocyclohexyl)-1H-pyrrolo[2,3-c]pyridine-1-yl)-5-fluoro-N-isopropyl-N-methylbenzamide] showed an IC50 of at least 1000 nM.
The same measure for `CC(C)N(C(=O)c1cc(F)ccc1-n1cc(C2CCC(N3CCC4(CC(NS(C)(=O)=O)C4)C3)CC2)c2ccncc21)C(C)C` (single isomer, unassigned) [Example 139A, 5-fluoro-N,N-diisopropyl-2-(3-(4-(2-(methylsulfonamido)-6-azaspiro[3.4]octan-6-yl)cyclohexyl)-1H-pyrrolo[2,3-c]pyridin-1-yl)benzamide]: under 100 nM; for `CC(C)N(C)C(=O)c1cc(F)ccc1-n1c(=O)n(C2CCN(CC3CCCCC3)CC2)c2ccncc21` [Example 81, 2-(1-(1-(cyclohexylmethyl)piperidin-4-yl)-2-oxo-1,2-dihydro-3H-imidazo[4,5-c]pyridin-3-yl)-5-fluoro-N-isopropyl-N-methylbenzamide]: under 100 nM; for `CC(C)N(C)C(=O)c1cc(F)ccc1-n1cc(C2CCN(C(=O)C3Cc4ccccc4C3)CC2)c2ccncc21` [Example 132, 2-(3-(1-(2,3-dihydro-1H-indene-2-carbonyl)piperidin-4-yl)-1H-pyrrolo[2,3-c]pyridin-1-yl)-5-fluoro-N-isopropyl-N-methylbenzamide]: under 100 nM.
With `CC(C)N(C)C(=O)c1cc(F)ccc1-n1cc(C2CCC3(CC2)CNC3)c2ccncc21` [Example 51, 2-(3-(2-azaspiro[3.5]nonan-7-yl)-1H-pyrrolo[2,3-c]pyridin-1-yl)-5-fluoro-N-isopropyl-N-methylbenzamide] the figure was 100 to 1000 nM.
For the compound `CC(C)N(C)C(=O)c1cc(F)ccc1-n1cc(C2CCCN(Cc3ccc4[nH]c(=O)[nH]c4c3)C2)c2ccncc21` (single isomer, unassigned) [Example 43B, 5-fluoro-N-isopropyl-N-methyl-2-(3-(1-((2-oxo-2,3-dihydro-1H-benzo[d]imidazol-5-yl)methyl)piperidin-3-yl)-1H-pyrrolo[2,3-c]pyridin-1-yl)benzamide], the IC50 was under 100 nM.
With `O=c1[nH]c2ccc(CN3CCC(c4cn(-c5ccccc5)c5cncnc45)CC3)cc2[nH]1` [Example 73, 5-((4-(5-phenyl-5H-pyrrolo[3,2-d]pyrimidin-7-yl)piperidin-1-yl)methyl)-1H-benzo[d]imidazol-2(3H)-one] the figure was at least 1000 nM; with `Fc1ccc(-n2cc(C3CCN(Cc4ccc5[nH]ccc5c4)CC3)c3ncncc32)cc1` [Example 69, 7-(1-((1H-indol-5-yl)methyl)piperidin-4-yl)-5-(4-fluorophenyl)-5H-pyrrolo[3,2-d]pyrimidine], 100 to 1000 nM.

Source of the values: patent US10899758B2, “Inhibitors of the menin-MLL interaction” (Vitae Pharmaceuticals, LLC, priority 2016, dated 2021).
